The subject of one assay is M17-TAU P301L cells. As to the kind of experiment: TAU cytotoxicity assay: LDH leakage of retinoic acid incubated M17-TAU P301L cells. Format: cell-based, human. Conditions: Homo sapiens, 168 h, reduction of LDH activity of retinoic acid incubated M17-TAU P301L cells, 7 days. An excerpt: A TAU expression plasmid was constructed by sub-cloning the cDNA of human TAU-P301 L (encoding for TAU with proline 301 substituted by a leucine residue) into mammalian expression vector pcDNA3.1 resulting in plasmid pcDNA3.1-TAU P301L. Plasmids pcDNA3.1 and pcDNA3.1-TAU P301L were transfected to human neuroblastoma cells ([…]; ATCC No. CRL-2267) and independent clonal lines with the plasmids stably integrated into the genome were selected. […] Expression of the TAU P301L genes in the cell lines was confirmed by Western analysis.
In degenerated or dead cells lactate dehydrogenase (LDH) is leaked out of the cells into the extracellular environment due to a loss of plasma-membrane integrity. This principle was used to determine cytotoxicity by quantifying the level of leaked LDH into the growth medium.
The detailed method for determining TAU cytotoxicity was as follows: From appropriate precultures of M17-3.1 and M17-TAU(P301L) cells were seeded at 2500 cells/cm2 in Optimem Reduced Serum without phenol red (Gibco, Cat. 31985-047) supplemented with 1% fetal calf serum, 1 mM sodium pyruvate, 1× non-essential amino acids, 500 μg/ml G418 0.5× antibiotic/antimycotic. After 3 h of incubation at 37° C./5% CO2 1 volume of Optimem Reduced Serum (same as described above; except without fetal calf serum) supplemented with 2.5 μM retinoic acid (RA) was added. The cells were further incubated for 7 days. Subsequently, LDH activity was determined using Promega Cytotox 96 Non-Radioactive cytotoxicity assay, (Cat. G1780) according the supplier's instructions.
The M17-TAU P301L cell line made it possible to assess the ability of novel compounds to counteract TAU cytotoxicity. […] These measurements were used to calculate EC50 values of table 2.
Exemplary compounds of the present invention are shown in table 2, with their chemical name and their EC50 value (expressed in nM) as determined from example 196 in the Tau-induced toxicity experiment.
A general note: LDH in the medium is a marker of cell lysis.
One may read the EC50 as the concentration that produces a half-maximal response. Read a high EC50 as lower potency in that assay. As to `CC(c1ccccc1)N1CCC(C(=O)NCCc2c[nH]c3ccc(Cl)cc23)C1=O` (single isomer, unassigned) [D156 Fraction A, N-(2-(5-chloro-1H-indol-3-yl)ethyl)-2-oxo-1-(1-phenylethyl)pyrrolidine-3-carboxamide], the EC50 amounted to 0.819 µM. On to `COc1cccc(Cc2cc(C(=O)NCCc3c[nH]c4ccc(Cl)cc34)no2)c1` [Example D1, N-(2-(5-chloro-1H-indol-3-yl)ethyl)-5-(3-methoxybenzyl)isoxazole-3-carboxamide], for which the EC50 came out at 0.002 µM. On the same count and under the same terms, for `O=C(NCCc1c[nH]c2ccc(Cl)cc12)c1cc(C2CCCC2)on1` [Example D2, N-(2-(5-chloro-1H-indol-3-yl)ethyl)-5-cyclopentylisoxazole-3-carboxamide] the value was 0.003 µM; for `N#Cc1cccc(Cc2cc(C(=O)NCCc3c[nH]c4ccc(Cl)cc34)no2)c1` [Example D3, N-(2-(5-chloro-1H-indol-3-yl)ethyl)-5-(3-cyanobenzyl)isoxazole-3-carboxamide], 0.006 µM. Still for that read-out and setting: for `N#Cc1ccc(Cc2cc(C(=O)NCCc3c[nH]c4ccc(Cl)cc34)no2)cc1` [Example D4, N-(2-(5-chloro-1H-indol-3-yl)ethyl)-5-(4-cyanobenzyl)isoxazole-3-carboxamide] the value was 0.009 µM; for `O=C(NCCc1c[nH]c2ccc(Cl)cc12)c1cc(C2CC2)on1` [Example D6, N-(2-(5-chloro-1H-indol-3-yl)ethyl)-5-cyclopropylisoxazole-3-carboxamide], 0.013 µM; for `O=C(NCCc1c[nH]c2ccc(Cl)cc12)c1cc(Cc2ccccc2)on1` [Example D7, 5-benzyl-N-(2-(5-chloro-1H-indol-3-yl)ethyl)isoxazole-3-carboxamide], 0.015 µM. In turn, `COc1ccccc1Cc1cc(C(=O)NCCc2c[nH]c3ccc(Cl)cc23)no1` [Example D8, N-(2-(5-chloro-1H-indol-3-yl)ethyl)-5-(2-methoxybenzyl)isoxazole-3-carboxamide] came in with an EC50 of 0.016 µM. Consider `O=C(NCCc1c[nH]c2ccc(Cl)cc12)c1cc(Cc2ccc(C(F)(F)F)cc2)on1` [Example D9, N-(2-(5-chloro-1H-indol-3-yl)ethyl)-5-(4-(trifluoromethyl)benzyl)isoxazole-3-carboxamide], for which it took 0.016 µM to reach a half-maximal effect (EC50).

On to `COc1ccc(Cc2cc(C(=O)NCCc3c[nH]c4ccc(Cl)cc34)no2)cc1` [Example D10, N-(2-(5-chloro-1H-indol-3-yl)ethyl)-5-(4-methoxybenzyl)isoxazole-3-carboxamide], for which the concentration for a half-maximal effect (EC50) was 0.017 µM. On the same count and under the same terms, for `O=C(NCCc1c[nH]c2ccc(Cl)cc12)c1cc(-c2ccco2)on1` [Example D11, N-(2-(5-chloro-1H-indol-3-yl)ethyl)-5-(furan-2-yl)isoxazole-3-carboxamide] the value was 0.017 µM; for `Cc1ccc(Cc2cc(C(=O)NCCc3c[nH]c4ccc(Cl)cc34)no2)cc1` [Example D12, N-(2-(5-chloro-1H-indol-3-yl)ethyl)-5-(4-methylbenzyl)isoxazole-3-carboxamide], 0.017 µM; for `O=C(NCCc1c[nH]c2ccc(Cl)cc12)c1cc(C2CCCCC2)on1` [Example D13, N-(2-(5-chloro-1H-indol-3-yl)ethyl)-5-cyclohexylisoxazole-3-carboxamide], 0.018 µM. In turn, `Cc1ccc2[nH]cc(CCNC(=O)c3cc(Cc4cccc(F)c4)on3)c2c1` [Example D14, 5-(3-fluorobenzyl)-N-(2-(5-methyl-1H-indol-3-yl)ethyl)isoxazole-3-carboxamide] yielded an EC50 of 0.019 µM.

As to `Cn1nc(C(=O)NCCc2c[nH]c3ccc(Cl)cc23)cc1-c1cccs1` [Example D15, N-(2-(5-chloro-1H-indol-3-yl)ethyl)-1-methyl-5-(thiophen-2-yl)-1H-pyrazole-3-carboxamide], a half-maximal response (EC50) required 0.021 µM. Consider `O=C(NCCc1c[nH]c2ccc(Cl)cc12)c1cc(-c2cccs2)on1` [Example D16, N-(2-(5-chloro-1H-indol-3-yl)ethyl)-5-(thiophen-2-yl)isoxazole-3-carboxamide], for which the midpoint of the response, the EC50, lay at 0.021 µM. The same measure, in the same setting: next, `O=C(NCCc1c[nH]c2ccc(Cl)cc12)c1cc(Cc2ccco2)on1` [Example D17, N-(2-(5-chloro-1H-indol-3-yl)ethyl)-5-(furan-2-ylmethyl)isoxazole-3-carboxamide]: 0.022 µM; `Cn1nc(C(=O)NCCc2c[nH]c3ccc(Cl)cc23)cc1-c1ccco1` [Example D19, N-(2-(5-chloro-1H-indol-3-yl)ethyl)-5-(furan-2-yl)-1-methyl-1H-pyrazole-3-carboxamide]: 0.023 µM.

Compound `Cc1cccc(Cc2cc(C(=O)NCCc3c[nH]c4ccc(Cl)cc34)no2)c1` [Example D20, N-(2-(5-chloro-1H-indol-3-yl)ethyl)-5-(3-methylbenzyl)isoxazole-3-carboxamide] had an EC50 of 0.023 µM. The same measure, in the same setting: for `COc1cccc(Cc2cc(C(=O)NCCc3c[nH]c4ccc(Cl)cc34)no2)c1F` [Example D21, N-(2-(5-chloro-1H-indol-3-yl)ethyl)-5-(2-fluoro-3-methoxybenzyl)isoxazole-3-carboxamide] the value was 0.025 µM.

`O=C(NCCc1c[nH]c2ccc(Cl)cc12)c1cc(Cc2ccoc2)on1` [Example D22, N-(2-(5-chloro-1H-indol-3-yl)ethyl)-5-(furan-3-ylmethyl)isoxazole-3-carboxamide] returned an EC50 of 0.028 µM. On the same count and under the same terms, next, `O=C(NCCc1c[nH]c2ccc(Cl)cc12)c1cc(Cc2cccc(F)c2)on1` [Example D23, N-(2-(5-chloro-1H-indol-3-yl)ethyl)-5-(3-fluorobenzyl)isoxazole-3-carboxamide]: 0.03 µM. Still for that read-out and setting: next, `Cc1ccc(-c2nc(C)c(C(=O)NCCc3c[nH]c4ccccc34)s2)cc1` [Example D24, N-(2-(1H-indol-3-yl)ethyl)-4-methyl-2-p-tolylthiazole-5-carboxamide]: 0.034 µM. Same read-out and setting: for `O=C(NCCc1c[nH]c2ccc(Cl)cc12)c1cc(Cc2ccsc2)on1` [Example D25, N-(2-(5-chloro-1H-indol-3-yl)ethyl)-5-(thiophen-3-ylmethyl)isoxazole-3-carboxamide] the value was 0.035 µM; for `Cn1nc(C(=O)NCCc2c[nH]c3ccc(Cl)cc23)cc1-c1ccccc1` [Example D26, N-(2-(5-chloro-1H-indol-3-yl)ethyl)-1-methyl-5-phenyl-1H-pyrazole-3-carboxamide], 0.038 µM. For the compound `O=C(NCCc1c[nH]c2ccc(Cl)cc12)c1cc(Cc2cccs2)on1` [Example D27, N-(2-(5-chloro-1H-indol-3-yl)ethyl)-5-(thiophen-2-ylmethyl)isoxazole-3-carboxamide], the EC50 amounted to 0.038 µM.

Take `O=C(NCCc1c[nH]c2ccc(F)cc12)c1cc(Cc2cccc(F)c2)on1` [Example D28, N-(2-(5-fluoro-1H-indol-3-yl)ethyl)-5-(3-fluorobenzyl)isoxazole-3-carboxamide]: the EC50 was determined as 0.041 µM. Same read-out and setting: next, `CC(C)(C)OC(=O)Nc1cc(C(=O)NCCc2c[nH]c3ccc(Cl)cc23)no1` [Example D29, tert-butyl 3-(2-(5-chloro-1H-indol-3-yl)ethylcarbamoyl)isoxazol-5-ylcarbamate]: 0.042 µM.

The same assay, now with this note: reduction of LDH activity of retinoic acid incubated M17-TAU P301L cells, 7 days.
Regarding `CC(c1ccccc1)N1CCC(C(=O)NCCc2c[nH]c3ccc(Cl)cc23)C1=O` (single isomer, unassigned) [D156 Fraction B, N-(2-(5-chloro-1H-indol-3-yl)ethyl)-2-oxo-1-(1-phenylethyl)pyrrolidine-3-carboxamide], the response was half-maximal at 1.18 µM (EC50).

For the origin of these results see US8618138B2, “Indole amide derivatives and related compounds for use in the treatment of neurodegenerative diseases” (Katholieke Universiteit Leuven, K.U. Leuven R&D, priority 2009, dated 2013).
